From US20210156868A1, “COMPOSITIONS AND METHODS FOR DETECTING ALBUMIN” (Tournament BioVenture LLC, priority 2019, published 2021)
Entries after “also recorded” stand apart in the source; their conditions may differ. One block for each molecule: values may come before it.

Experiments:
HSA pseudo esterase = HSA pseudo esterase (Homo sapiens, UniProt P02768); experiment: Michaelis-Menten kinetics of HSA pseudo esterase (FIG. 3); assay type: biochemical; conditions: 14:0 NPS-PC as probe
Solubility in water = assay type: physicochemical
[1] = system: non-albumin esterase activity (PLA2 activity in human serum, associated with LDL or HDL); experiment: Inhibition of non-albumin esterase (PLA2) activity with 14:0 NPS-PC as probe (FIG. 4); assay type: biochemical; conditions: for sensitivity of non-albumin (LDL/HDL, PLA2) esterase activity compared to pseudo esterase activity of albumin: human serum, 14:0 NPS-PC probe
Procedure: The reaction was started by the addition of 110 μl of TBS reaction buffer (10 mM Tris-HCl, 150 mM NaCl, pH 7.4) containing […] 14:0 NPS-PC and 5 mM EDTA to 20 μl of HSA solution in a well of a 96-well plate. The reactions were followed at wavelength 405 nm (absorbance) in a SPECTRAmax M5 plate reader.
As shown in EXAMPLE 1, using 14:0 NPS-PC as probe also identified non-albumin esterase activity, i.e. PLA2 activity in human serum, which is mainly associated with HDL and LDL. […] Pefabloc at 15-20 mM (final concentration) can eliminate all non-albumin esterase activity but maintain >90% of albumin esterase activity when assayed with 1.5 mM 14:0 NPS-PC at pH 7.4.

[2] = system: non-HSA esterase activity associated with HDL; experiment: Inactivation of HDL-associated esterase activity on incubation with Pefabloc SC (FIG. 5); assay type: biochemical, human; conditions: 2 mM Pefabloc SC
[3] = molecular target: HSA pseudo esterase activity (Homo sapiens, UniProt P02768); conditions: 2 mM Pefabloc SC incubation; HSA 44 mg/ml in TBS, pH 7.4; hydrochloride
[4] = system: human serum non-HSA esterase activity; experiment: Inactivation of non-HSA esterase activity in mix of 20 human sera (FIG. 6, FIG. 7); assay type: biochemical; conditions: 1 mM Pefabloc SC, 24° C., hydrochloride
Procedure: When human serum was incubated with 1 mM Pefabloc, the non-HSA esterase activity can be abolished in about 10 minutes.

Ca^2+ dependent PLA2 = conditions: 5 mM in the assay buffer
albumin = albumin (Homo sapiens, UniProt P02768); experiment: Effects of solvent and additives on pseudo-lipase activity of albumin (FIG. 13); assay type: biochemical
Text: Dimethyl sulfoxide (DMSO), EDTA and Tween-20 had been used to determine the tolerable concentration of organic solvent.

HSA pseudo esterase activity, sequence (P02768 25-609): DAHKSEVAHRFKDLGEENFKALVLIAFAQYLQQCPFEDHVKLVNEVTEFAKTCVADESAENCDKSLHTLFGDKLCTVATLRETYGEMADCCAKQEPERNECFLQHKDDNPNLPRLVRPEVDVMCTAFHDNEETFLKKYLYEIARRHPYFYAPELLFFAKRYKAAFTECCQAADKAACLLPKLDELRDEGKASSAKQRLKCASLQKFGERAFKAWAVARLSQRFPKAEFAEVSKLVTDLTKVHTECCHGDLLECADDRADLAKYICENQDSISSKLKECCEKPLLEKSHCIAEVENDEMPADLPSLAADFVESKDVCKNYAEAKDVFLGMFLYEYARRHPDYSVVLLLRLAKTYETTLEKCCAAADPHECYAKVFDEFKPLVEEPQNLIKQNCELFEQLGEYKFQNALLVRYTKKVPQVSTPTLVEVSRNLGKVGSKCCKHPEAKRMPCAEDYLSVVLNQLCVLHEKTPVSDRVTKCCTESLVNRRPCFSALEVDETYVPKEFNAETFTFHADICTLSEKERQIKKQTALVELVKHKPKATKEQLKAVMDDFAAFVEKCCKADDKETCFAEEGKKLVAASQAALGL
HSA pseudo esterase, sequence (P02768 25-609): as above
albumin, sequence (P02768 25-609): as above

SMILES: CCCCCCCCCCCCCC(=O)OC[C@H](COP(=O)([O-])OCC[N+](C)(C)C)OC(=O)CCC(=O)Oc1ccc([N+](=O)[O-])cc1 [14:0 NPS-PC, 1-myristoyl-2-(4-nitrophenylsuccinyl)-sn-glycero-3-phosphocholine]
- Km in the pseudo esterase reaction of HSA (HSA pseudo esterase): relative low Km

- solubility in water (Solubility in water): insoluble in water
SMILES: CCN(CC)CCN(Cc1ccc(-c2ccc(C(F)(F)F)cc2)cc1)C(=O)Cn1c(SCc2ccc(F)cc2)nc(=O)c2c1CCC2 [darapladib]

SMILES: Cl.NCCc1ccc(S(=O)(=O)F)cc1 [Pefabloc SC, 4-(2-aminoethyl)benzenesulfonyl fluoride hydrochloride]
- sensitivity of non-albumin (LDL/HDL, PLA2) esterase activity compared to pseudo esterase activity of albumin [1]: much more sensitive
- non-albumin esterase activity ([1]; inhibitor 15-20 mM final concentration, 1.5 mM 14:0 NPS-PC, pH 7.4): eliminate all
- non-HSA esterase activity associated with HDL depleted ([2]; 6 hr of incubation, HDL 2.5 mg/ml of cholesterol): About 80%
- incubation time to complete inactivation of HDL-associated esterase activity ([2]; purified HDL): 6 to 10 h
- inactivation of HSA pseudo esterase activity [3]: No inactivation; also recorded: no activity loss
- incubation time to complete inactivation of human serum non-HSA esterase activity [4]: about 15 min
- incubation time to complete inactivation of human serum non-HSA esterase activity ([4]; listed as Pefabloc): about 10 min

SMILES: O=C(O)CN(CCN(CC(=O)O)CC(=O)O)CC(=O)O [EDTA]
- activity of Ca^2+ dependent PLA2 towards 14:0 NPS-PC (Ca^2+ dependent PLA2): suppresses

SMILES: O=S(=O)(F)Cc1ccccc1 [PMSF, phenylmethylsulfonyl fluoride]
- sensitivity of non-albumin (LDL/HDL, PLA2) esterase activity compared to pseudo esterase activity of albumin [1]: much more sensitive

- effect on the assay of albumin (albumin): does not have effects
SMILES: C[S+](C)[O-] [DMSO, Dimethyl sulfoxide]
